Key:
EW-1 (Ewing's Sarcoma) [1] = assay: Bliss excess, mean over the matrix (fraction); higher = more synergy
Outline: (§1)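 Bliss excess equals the observed combination effect minus the expected value EA + EB − EA·EB, where EA and EB are the effects of each agent alone. Combination Emax is the second-highest inhibition within the matrix. Inhibition was scaled from CellTiter-Glo 2.0 luminescence, with 0 set by vehicle wells and 1 by blank wells, after 72 hours of two-drug dosing of cells plated in 1536-well plates.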

[2] = system: G-401 (Other Solid Carcinomas); assay: as above
Outline: as §1

Hey (Ovarian Carcinoma) = assay: as above
Outline: as §1

[3] = system: KOPN-8 (B-Lymphoblastic Leukemia); assay: as above
Outline: as §1

[4] = system: LC-1-sq (Squamous Cell Lung Carcinoma); assay: as above
Outline: as §1

[5] = system: NCI-H2122 (Lung Adenocarcinoma); assay: as above
Outline: as §1

[6] = system: ALL-SIL (T-Lymphoblastic Leukemia); assay: combination Emax (second highest fraction inhibited in the dose matrix, 72 h); higher = more inhibition; extreme values may be limits of the assay
Outline: as §1

[7] = system: CADO-ES1 (Ewing's Sarcoma); assay: as above
Outline: as §1

EW-1 (Ewing's Sarcoma) [8] = assay: as above
Outline: as §1

[9] = system: G-401 (Other Solid Carcinomas); assay: as above
Outline: as §1

[10] = system: HCC1500 (Breast Carcinoma); assay: as above
Outline: as §1

[11] = system: HCC1937 (Breast Carcinoma); assay: as above
Outline: as §1

[12] = system: HCC2998 (Colorectal Carcinoma); assay: as above
Outline: as §1

[13] = system: LC-1-sq (Squamous Cell Lung Carcinoma); assay: as above
Outline: as §1

[14] = system: NCI-H1838 (Lung Adenocarcinoma); assay: as above
Outline: as §1

[15] = system: NCI-H2122 (Lung Adenocarcinoma); assay: as above
Outline: as §1

[16] = system: NCI-H650 (Lung Adenocarcinoma); assay: as above
Outline: as §1

[17] = system: OACM5-1 (Esophageal Adenocarcinoma); assay: as above
Outline: as §1

[18] = system: SK-LU-1 (Lung Adenocarcinoma); assay: as above
Outline: as §1

[19] = system: DU-145 (Prostate Carcinoma); assay: as above
Outline: as §1

| Compound | Bliss excess (EW-1 (Ewing's Sarcoma) [1]) | Bliss excess [2] | Bliss excess (Hey (Ovarian Carcinoma)) | Bliss excess [3] | Bliss excess [4] | Bliss excess [5] | combination Emax [6] | combination Emax [7] | combination Emax (EW-1 (Ewing's Sarcoma) [8]) | combination Emax [9] | combination Emax [10] | combination Emax [11] | combination Emax [12] | combination Emax [13] | combination Emax [14] | combination Emax [15] | combination Emax [16] | combination Emax [17] | combination Emax [18] | combination Emax [19] |
| --- | --- | --- | --- | --- | --- | --- | --- | --- | --- | --- | --- | --- | --- | --- | --- | --- | --- | --- | --- | --- |
| CN(CCO)CC[C@H](CSc1ccccc1)Nc1ccc(S(=O)(=O)NC(=O)c2ccc(N3CCC([C@@H](O)c4ccccc4-c4ccc(Cl)cc4)CC3)cc2)cc1S(=O)(=O)C(F)(F)F [AZD4320] + Cc1cc2ncnn2cc1Nc1ncc2c(n1)n(C1CCOCC1)c(=O)n2C [AZD7648] (first compound max 1 µM, 7x7, partner max 10 µM) | 0.0033 | -0.0392 | -0.0728 | -0.0243 | -0.0093 | -0.0074 | 1 | 0.608 | 0.745 | 0.424 | 0.998 | 0.29 | 0.492 | 0.158 | 0.289 | 0.273 | 0.134 | 0.577 | 0.421 |  |
| CN(CCO)CC[C@H](CSc1ccccc1)Nc1ccc(S(=O)(=O)NC(=O)c2ccc(N3CCC([C@@H](O)c4ccccc4-c4ccc(Cl)cc4)CC3)cc2)cc1S(=O)(=O)C(F)(F)F [AZD4320] + Nc1ccn([C@@H]2O[C@H](CO)[C@@H](O)C2(F)F)c(=O)n1 [Gemcitabine] (first compound max 1 µM, 7x7, partner max 0.3 µM) |  |  |  |  |  |  |  |  |  |  |  |  |  |  |  |  |  |  | 0.248 | 0.485 |
| N#Cc1cnc(Nc2cc(NC[C@H]3CNCCO3)c(C(F)(F)F)cn2)cn1 [SRA737] + C=CCn1c(=O)c2cnc(Nc3ccc(N4CCN(C)CC4)cc3)nc2n1-c1cccc(C(C)(C)O)n1 [AZD1775] (first compound max 10 µM, partner max 1 µM) |  |  |  |  |  |  |  |  |  |  |  |  |  |  |  |  |  |  | 0.442 | 0.263 |
| CN(CCO)CC[C@H](CSc1ccccc1)Nc1ccc(S(=O)(=O)NC(=O)c2ccc(N3CCC([C@@H](O)c4ccccc4-c4ccc(Cl)cc4)CC3)cc2)cc1S(=O)(=O)C(F)(F)F [AZD4320] + C[C@@H](Nc1cc(F)cc(F)c1)c1cc(C(=O)N(C)C)cc2c(=O)cc(N3CCOCC3)oc12 [AZD8186] (first compound max 1 µM, 7x7, partner max 3 µM) | 0.0604 | -0.101 | -0.0027 | 0.0392 | 0.022 | 0 | 1 | 0.919 | 0.924 | 0.661 | 0.992 | 0.63 | 0.884 | 0.336 | 0.258 | 0.536 | 0.474 | 0.404 |  | 0.227 |
| Cc1cc2ncnn2cc1Nc1ncc2c(n1)n(C1CCOCC1)c(=O)n2C [AZD7648] + CN(C)CCCOc1ccc(-c2ccc3ncc4c(c3c2)n(C2CCOCC2)c(=O)n4C)cn1 [AZD0156] (first compound max 10 µM, 7x7, partner max 1 µM) | 0.0734 | 0.0335 | 0.0367 | 0.0351 | 0.03 | 0.0426 | 0.321 | 0.38 | 0.34 | 0.329 | 0.299 | 0.221 | 0.299 | 0.221 | 0.371 | 0.253 | 0.186 | 0.27 |  | 0.167 |
| CN(CCO)CC[C@H](CSc1ccccc1)Nc1ccc(S(=O)(=O)NC(=O)c2ccc(N3CCC([C@@H](O)c4ccccc4-c4ccc(Cl)cc4)CC3)cc2)cc1S(=O)(=O)C(F)(F)F [AZD4320] + Cn1cnc2c(F)c(Nc3ccc(Br)cc3Cl)c(C(=O)NOCCO)cc21 [Selumetinib] (first compound max 1 µM, 7x7, partner max 3 µM) | 0.0387 | 0.0907 | 0.0771 | 0.0821 | 0.0514 | 0.0399 | 1 | 0.886 | 0.921 | 0.543 | 0.998 | 0.601 | 0.992 | 0.485 | 0.209 | 0.8 | 0.656 | 0.427 |  | 0.255 |
